Measured values as given in patent US20220298115A1, “SMALL MOLECULE INHIBITORS OF ACETYL COENZYME A SYNTHETASE SHORT CHAIN 2 (ACSS2)” (Curadev Pharma Pvt. Ltd., priority 2019, published 2022).

Experiments:
human ACSS2 = target: T1, human ACSS2 (Homo sapiens, UniProt Q9NR19); experiment: ACSS2 enzyme assay (acetyl-CoA formation, LC-MS/MS); format: biochemical; settings: cytosolic fraction of BT474 cells as ACSS2 source; 100 μM acetate, CoA and ATP; 2 h at 25° C.; read-out: Enzyme Activity (IC50 range)
T1 construct: The cytosolic fraction of BT474 cells was used as a source of the ACSS2 enzyme; endogenous in cells; host or cells: BT474 cells (cytosolic fraction)
T1 sequence (Q9NR19 whole entry): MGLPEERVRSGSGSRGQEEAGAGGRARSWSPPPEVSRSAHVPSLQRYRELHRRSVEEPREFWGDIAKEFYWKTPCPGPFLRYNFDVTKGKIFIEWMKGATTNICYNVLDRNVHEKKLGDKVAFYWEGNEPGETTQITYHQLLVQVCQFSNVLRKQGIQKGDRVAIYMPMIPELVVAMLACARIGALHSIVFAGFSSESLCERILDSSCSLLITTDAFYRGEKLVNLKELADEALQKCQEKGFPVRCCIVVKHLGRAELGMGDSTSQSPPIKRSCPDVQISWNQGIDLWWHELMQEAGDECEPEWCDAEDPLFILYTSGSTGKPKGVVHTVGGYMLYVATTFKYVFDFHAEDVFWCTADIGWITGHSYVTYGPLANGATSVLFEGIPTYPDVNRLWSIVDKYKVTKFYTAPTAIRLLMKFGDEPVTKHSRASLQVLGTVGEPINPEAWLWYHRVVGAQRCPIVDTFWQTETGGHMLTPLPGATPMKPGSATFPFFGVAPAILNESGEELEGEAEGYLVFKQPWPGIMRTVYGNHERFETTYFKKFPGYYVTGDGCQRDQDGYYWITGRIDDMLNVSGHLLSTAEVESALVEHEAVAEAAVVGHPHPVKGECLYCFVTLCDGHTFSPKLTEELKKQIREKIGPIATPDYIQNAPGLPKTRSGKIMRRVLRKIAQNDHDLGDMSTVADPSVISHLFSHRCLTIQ
Procedure, shortened: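 Enzyme source was BT474 cytosolic fraction (100 ng), preincubated 5 min with compound in 25 mM Tris-HCl pH7.4, 1 mM MgCl2, 1 mM DTT, 0.05% Tween20, 1% DMSO. Reaction started with 100 μM each of acetate, CoA and ATP, 2 h at 25 °C, stopped with TCA; acetyl-CoA quantified by LC-MS/MS.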

[1] = test system: [14C] acetate incorporation in macromolecules, BT474 cells; experiment: Cell based [14C] acetate incorporation assay; settings: Homo sapiens, BT-474, 3 h at 37° C., read-out: Cellular Activity (IC50 range)
Procedure, shortened: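 BT474 cells (4×10^4/well, plated overnight) were preincubated with compound for 10 min at 37°C in HBSS. They were then given 0.1 μCi [14C]acetate plus 10 μM unlabelled acetate (both in the added acetate solution) for 3 h at 37°C, 5% CO2. Label incorporated into macromolecules was harvested onto PEI-treated filters and counted by scintillation.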

| IC50 (human ACSS2) [nM] | IC50 [1] [nM] | SMILES |
| --- | --- | --- |
| < 100 | < 100 | CCC(O)CCC(=O)Nc1ccc2nc(C)c(-c3ccccc3F)cc2c1 (stereo not shown) [Example 129, N-(3-(2-fluorophenyl)-2-methyl-quinolin-6-yl)-4-hydroxy-hexanamide] |
| < 100 | ≤ 1000 | CCC(O)CCC(=O)Nc1ccc2nc(C)c(-c3ccccc3)cc2c1 (stereo not shown) [Example 130, 4-hydroxy-N-(2-methyl-3-phenyl-quinolin-6-yl)hexan-amide] |
| ≤ 1000 | ≤ 1000 | O=C(Nc1ccc2nc(-c3ccccc3)c(-c3ccccc3)cc2c1)NC1CCCCC1 [Example 131, 1-cyclohexyl-3-(2,3-diphenylquinolin-6-yl)urea] |
| ≤ 10000 | > 10000 | CN1CCN(C(=O)Nc2ccc3nc(-c4ccccc4)c(-c4ccccc4)cc3c2)CC1 [Example 132, N-(2,3-diphenylquinolin-6-yl)-4-methylpiperazine-1-carboxamide] |
| ≤ 10000 | > 10000 | CC(=O)N1CCN(C(=O)Nc2ccc3nc(-c4ccccc4)c(-c4ccccc4)cc3c2)CC1 [Example 133, 4-acetyl-N-(2,3-diphenylquinolin-6-yl)piperazine-1-carboxamide] |
| ≤ 1000 | ≤ 1000 | C=CCNC(=O)Nc1ccc2nc(-c3ccccc3)c(-c3ccccc3)cc2c1 [Example 134, 1-allyl-3-(2,3-diphenylquinolin-6-yl)urea] |
| ≤ 1000 | ≤ 1000 | C#CCNC(=O)Nc1ccc2nc(-c3ccccc3)c(-c3ccccc3)cc2c1 [Example 135, 1-(2,3-diphenylquinolin-6-yl)-3-(prop-2-yn-1-yl)urea] |
| ≤ 1000 | ≤ 1000 | O=C(Nc1ccc2nc(-c3ccccc3)c(-c3ccccc3)cc2c1)NC1CCCC1O (stereo not shown) [Example 136, 1-(2,3-diphenylquinolin-6-yl)-3-(2-hydroxycyclo-pentyl)urea] |
| ≤ 1000 | ≤ 1000 | O=C(Nc1ccc2nc(-c3ccccc3)c(-c3ccccc3)cc2c1)NC1CCOCC1 [Example 137, 1-(2,3-diphenylquinolin-6-yl)-3-(tetrahydro-2H-pyran-4-yl)urea] |
| < 100 | < 100 | COC1CCN(C(=O)Nc2ccc3nc(-c4ccccc4)c(-c4ccccc4)cc3c2)C1 (stereo not shown) [Example 138, N-(2,3-diphenylquinolin-6-yl)-3-methoxypyrrol-idine-1-carboxamide] |
| > 10000 | > 10000 | O=C(Nc1ccc2nc(-c3ccccc3)c(-c3ccccc3)cc2c1)Nc1ccccn1 [Example 139, 1-(2,3-diphenylquinolin-6-yl)-3-(pyridin-2-yl)urea] |
| > 10000 | > 10000 | O=C(Nc1ccccc1)Nc1ccc2nc(-c3ccccc3)c(-c3ccccc3)cc2c1 [Example 140, 1-(2,3-diphenylquinolin-6-yl)-3-phenylurea] |
| ≤ 10000 | > 10000 | CN1CCC(NC(=O)Nc2ccc3nc(-c4ccccc4)c(-c4ccccc4)cc3c2)C1 (stereo not shown) [Example 141, 1-(2,3-diphenylquinolin-6-yl)-3-(1-methylpyrrolidin-3-yl)urea] |
| > 10000 | > 10000 | O=C(Nc1ccncc1)Nc1ccc2nc(-c3ccccc3)c(-c3ccccc3)cc2c1 [Example 142, 1-(2,3-diphenylquinolin-6-yl)-3-(pyridin-4-yl)urea] |
| > 10000 | ≤ 10000 | O=C(Nc1ccc2nc(-c3ccccc3)c(-c3ccccc3)cc2c1)NC1(CO)CCCC1 [Example 143, 1-(2,3-diphenylquinolin-6-yl)-3-(1-(hydroxymethyl)cyclopentyl) urea] |
| ≤ 1000 | < 100 | Cn1cc(NC(=O)Nc2ccc3nc(-c4ccccc4)c(-c4ccccc4)cc3c2)cn1 [Example 144, 1-(2,3-diphenylquinolin-6-yl)-3-(1-methyl-1H-pyrazol-4-yl)urea] |
| ≤ 1000 | ≤ 1000 | CCC(O)CNC(=O)Nc1cnc2nc(-c3ccccc3)c(-c3ccccc3)cc2c1 (stereo not shown) [Example 145, 1-(6,7-Diphenyl-1,8-naphthyridin-3-yl)-3-(2-hydroxybutyl)urea] |
